This note sets out measurements from ChEMBL document CHEMBL4602687, “Dual Binding to Orthosteric and Allosteric Sites Enhances the Anticancer Activity of a TRAP1-Targeting Drug” (J Med Chem, 2020).

The species entered for one experiment is Homo sapiens. The experiment can be described thus: Inhibition of recombinant full-length human TRAP1 W585/W4F mutant expressed in Escherichia coli BL21 (DE3) assessed as intrinsic fluorescence quenching of tryptophan residues at 10 uM measured after 1 hr by fluorescence spectrophotometric method.
Experiment [1] has as its target T1, Heat shock protein 75 kDa, mitochondrial (Homo sapiens) (UniProt Q12931).
T1 sequence (whole entry): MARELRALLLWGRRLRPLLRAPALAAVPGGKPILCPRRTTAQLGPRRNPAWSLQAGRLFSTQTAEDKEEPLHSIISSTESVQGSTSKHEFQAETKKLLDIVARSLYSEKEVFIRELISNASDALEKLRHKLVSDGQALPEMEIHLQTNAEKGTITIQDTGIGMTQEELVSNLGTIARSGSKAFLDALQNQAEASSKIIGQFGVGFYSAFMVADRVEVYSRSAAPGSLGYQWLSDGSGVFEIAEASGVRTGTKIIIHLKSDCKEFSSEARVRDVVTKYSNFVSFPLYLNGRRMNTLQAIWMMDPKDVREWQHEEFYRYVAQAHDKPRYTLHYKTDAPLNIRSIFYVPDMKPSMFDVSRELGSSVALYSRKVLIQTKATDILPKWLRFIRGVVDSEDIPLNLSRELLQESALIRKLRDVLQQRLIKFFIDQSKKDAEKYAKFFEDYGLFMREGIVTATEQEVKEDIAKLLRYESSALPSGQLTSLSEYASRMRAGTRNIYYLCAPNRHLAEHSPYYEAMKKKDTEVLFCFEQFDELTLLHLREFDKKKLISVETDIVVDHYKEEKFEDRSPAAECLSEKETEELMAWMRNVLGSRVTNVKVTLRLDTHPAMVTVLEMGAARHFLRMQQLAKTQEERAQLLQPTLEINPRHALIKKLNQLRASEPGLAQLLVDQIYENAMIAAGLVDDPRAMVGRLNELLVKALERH
The experiment is described as follows: Stimulation of recombinant wild-type human TRAP1 ATPase activity expressed in Escherichia coli BL21 (DE3) at 2 to 5 uM preincubated for 0.5 hrs followed by 2 mM ATP addition and measured after 3 hrs by PiColorLock Gold reagent based colorimetric assay relative to control.

In experiment [2] the target is T1, Heat shock protein 75 kDa, mitochondrial (Homo sapiens). The experiment is described as follows: Inhibition of TRAP1 in human PC3 cells assessed as increase in reactive oxygen species generation at 10 uM measured after 2 hrs by Mito-SOX probe based flow cytometry. The conditions noted are these: PC-3. The format is cell-based.
Experiment [3] has the same target. The experiment is described as follows: Binding affinity to recombinant wild-type human TRAP1 ATP site expressed in Escherichia coli BL21 (DE3) assessed as induction of conformational change by measuring closed state population of TRAP1 at 10 uM preincubated for 30 mins followed by ATP addition and measured after 30 mins by TEM analysis (reference value: 52.1 +/- 0.6 %).

For a further experiment, the system named is HeLa. The experiment can be described thus: Cytotoxicity against human HeLa cells assessed as reduction in cell viability up to 3 uM measured after 24 hrs by MTT assay. The format is functional, cell-based.
Experiment [4] relates to NCI-H460. The experiment is described as follows: Antitumor activity against human NCI-H460 cells xenografted in nude mouse assessed as reduction in tumor cell proliferation at 5 mg/kg, ip administered daily by Ki67 staining based immunohistochemistry analysis. The format is functional, organism-based.
The target of experiment [5] is T1, Heat shock protein 75 kDa, mitochondrial (Homo sapiens). The experiment is described as follows: Inhibition of TRAP1 in human PC3 cells assessed as reduction in SDHB expression at 5 uM measured after 2 to 12 hrs by Western blot analysis. The format is cell-based. The conditions noted are these: PC-3.
For experiment [6], the system named is NCI-H460. The experiment is described as follows: Antitumor activity against human NCI-H460 cells xenografted in nude mouse assessed as induction of tumor cell death by measuring increase in cleaved caspase-9 expression at 5 mg/kg, ip administered daily by Western blot analysis. The class given is functional, organism-based. In general terms: In xenograft studies the graft and the host belong to different species.

In experiment [7] the test system is NCI-H460. The experiment is described as follows: Antitumor activity against human NCI-H460 cells xenografted in nude mouse assessed as tumor growth inhibition at 5 mg/kg, ip administered daily. The format is functional, organism-based.
In experiment [8] the test system is T2, Heat shock protein 75 kDa, mitochondrial (Homo sapiens), Q12931 [R402Q].
T2 sequence (whole entry): T1 sequence (whole entry) with R402Q
The experiment is described as follows: Stimulation of recombinant […] human TRAP1 R402Q mutant ATPase activity expressed in Escherichia coli BL21 (DE3) up to 20 uM preincubated for 0.5 hrs followed by ATP addition and measured after 3 hrs by PiColorLock Gold reagent based colorimetric assay.

For a further experiment, the system named is PC-3. The experiment can be described thus: Cytotoxicity against human PC3 cells assessed as reduction in cell viability up to 3 uM measured after 24 hrs by MTT assay. The class given is functional, cell-based.
The test system of the next experiment is Mus musculus. The experiment can be described thus: In vivo inhibition of TRAP1 in nude mouse xenografted with human NCI-H460 cells assessed as increase in CHOP expression at 5 mg/kg, ip administered daily by Western blot analysis. The class given is functional, organism-based.
The target of experiment [9] is T1, Heat shock protein 75 kDa, mitochondrial (Homo sapiens). The experiment can be described thus: Inhibition of recombinant wild-type human TRAP1 chaperone activity expressed in Escherichia coli BL21 (DE3) at 5 uM preincubated for 30 mins followed by denatured luciferase and ATP addition by luciferase refolding assay.

Residue numbers refer to the chain shown, from its start. Activity calls are given as the source filed them. The rule behind the calls is not given here.

With `Nc1ncnc2c1nc(Sc1cc3c(cc1I)OCO3)n2CCCCCCCCCC[P+](c1ccccc1)(c1ccccc1)c1ccccc1`, the inhibition entry (in the experiment filed under Homo sapiens; in experiment [2]; in experiment [5]; in the experiment with Mus musculus; in experiment [9]) was “Active” throughout. The fold change (FC) in [1] turned out to be 2. Also, the Activity in experiment [3] came to 94.2%. Further, the result (in the experiment on HeLa; in the experiment on NCI-H460 [4]; in the experiment with NCI-H460 [6]; in experiment [8]; in the experiment with PC-3) was Active. In addition, the TGI entry in the experiment on NCI-H460 [7] was “Active”.
